The supplement of paper PMC3937590

Legend:
Test in all cases: -log10 GI50 (growth inhibition 50%) (-log10(M)); higher = more potent growth inhibition
MDAMB231 = system: MDAMB231
How it was run: (§1)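 Dose-response data came from breast cancer cell lines exposed to each compound for 72 hours at nine doses in 1:5 serial dilution, in triplicate, and read by luminescence relative to a time-zero plate. A Gompertz curve fitted by nonlinear least squares gave GI50, the molar concentration for the set level of growth inhibition, reported as its negative logarithm to base 10. Where a value equals the top dose, it carries a < qualifier.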

MDAMB453 = system: MDAMB453
How it was run: as §1

SUM159PT = system: SUM159PT
How it was run: as §1

T47D_KBluc = system: T47D_KBluc
How it was run: as §1

ZR751 = system: ZR751
How it was run: as §1

MDAMB157 = system: MDAMB157
How it was run: as §1

184A1 = system: 184A1
How it was run: as §1

184B5 = system: 184B5
How it was run: as §1

CAMA1 = system: CAMA1
How it was run: as §1

HCC1419 = system: HCC1419
How it was run: as §1

BT20 = system: BT20
How it was run: as §1

SKBR3 = system: SKBR3
How it was run: as §1

AU565 = system: AU565
How it was run: as §1

SUM229PE = system: SUM229PE
How it was run: as §1

HCC38 = system: HCC38
How it was run: as §1

HCC70 = system: HCC70
How it was run: as §1

SUM52PE = system: SUM52PE
How it was run: as §1

MCF12A = system: MCF12A
How it was run: as §1

SUM185PE = system: SUM185PE
How it was run: as §1

UACC812 = system: UACC812
How it was run: as §1

SMILES | -log10 GI50 (MDAMB231) | -log10 GI50 (MDAMB453) | -log10 GI50 (SUM159PT) | -log10 GI50 (T47D_KBluc) | -log10 GI50 (ZR751) | -log10 GI50 (MDAMB157) | -log10 GI50 (184A1) | -log10 GI50 (184B5) | -log10 GI50 (CAMA1) | -log10 GI50 (HCC1419) | -log10 GI50 (BT20) | -log10 GI50 (SKBR3) | -log10 GI50 (AU565) | -log10 GI50 (SUM229PE) | -log10 GI50 (HCC38) | -log10 GI50 (HCC70) | -log10 GI50 (SUM52PE) | -log10 GI50 (MCF12A) | -log10 GI50 (SUM185PE) | -log10 GI50 (UACC812)
CC(=O)NCC(=O)N1[C@@H]2CC[C@H]1c1ccc(Nc3ncc(C(F)(F)F)c(NC4CCC4)n3)cc12 | 5.53 | 5.62 | 6.37 | 5.4 | 4.99 | 6.1 | 5.66 | 5.48 | 5.44 | 5.19 | 5.9 | 5.38 | 5.57 | 6.1 | 6.2 | 5.38 | 7.57 | 5.59 | 6.63 | 
COc1ncc(-c2ccc3nccc(-c4ccnnc4)c3c2)cc1NS(=O)(=O)c1ccc(F)cc1F | 6.37 | 8.33 | 7.63 | 7.71 | 8.09 | 6.51 | 8.77 | 8.23 | 7.08 | 9.48 | 7.8 | 8.41 | 8.1 | 8.59 | 7.61 | 8.13 | 8.46 | 8.09 |  | 8.49
Cn1ncc(Cl)c1-c1cc(C(=O)N[C@H](CN)Cc2ccc(F)c(F)c2)oc1Cl | 5.09 | 7.2 | 6.28 | 6.48 | 8.26 | 5.22 |  |  | 7.02 | 7.72 | 5.25 | 6.93 | 6.09 | 5.59 | 5.99 | 8.68 | 6.3 | 5.57 | 6.28 | 7.18
Nc1[nH]nc2nnc(-c3c(-c4ccccc4)nn4ccccc34)cc12 |  | < 4 | < 4.48 | < 4 | 5.23 | < 4 | 4.61 | 4.89 | < 4 | 4.88 | 4.55 | < 4 | < 4.48 | < 4.48 | 4.24 | 4.54 | 4.49 | < 4 | 4.43 | 4.56
O=C1NC(=O)/C(=C/c2ccc(-c3ccc(F)cc3O)o2)S1 | < 4.48 | 4.69 | 5.23 | < 4.48 | 5.2 | < 4.48 | 5.43 | 4.65 | < 4.18 | 4.69 | 4.93 | 4.4 | 4.88 | < 4.18 | < 4.18 | 4.67 | 4.69 | 4.68 |  | 4.88
Cn1c(=O)n(-c2ccc(C(C)(C)C#N)cc2)c2c3cc(-c4cnc5ccccc5c4)ccc3ncc21 [BEZ235] | < 4.48 | 6.92 | 7.44 | < 4.48 | 5.74 | 6.55 | 7.19 |  | 6.67 | 7.2 | 5.6 | < 4.48 | 6.59 | 6.67 | < 4.48 | 6.8 | 5.51 | 6.33 | < 4.48 | 5.69
CN(C)C/C=C/C(=O)Nc1cc2c(Nc3ccc(F)c(Cl)c3)ncnc2cc1O[C@H]1CCOC1 [BIBW2992] | 5.51 | 7.04 | 5.59 | 5.45 | 5.63 | 5.61 | 7.74 | 7.22 | 5.65 | 8.53 | 5.56 | 7.88 |  | 5.95 | 5.74 | 6.33 | 5.47 | 7.06 | 5.46 | 8.55
O=c1cc(-c2ccccc2)oc2cc(O)c(O)c(O)c12 [Baicalein] | 4.75 | 3.8 | 3.82 | 4 | 4.38 | 4.28 | < 3.78 | < 3.78 | 4.39 | 4.09 | 4.05 | 3.96 | 4.38 | 4.08 | 4.52 | 4.31 | 4.42 | 4.78 |  | 4.19
CC(C)C[C@H](NC(=O)[C@H](Cc1ccccc1)NC(=O)c1cnccn1)B(O)O [Bortezomib] | 7.66 | 8.07 | 8.14 | 6.52 | 7.55 | 8.16 | 8.18 | 8.33 | 7.9 | 8.86 | 7.33 | 7.88 | 8.32 | 7.48 | 7.98 | 8.6 | 8.28 | 7.39 | 8.27 | 
COc1cc(Nc2c(C#N)cnc3cc(OCCCN4CCN(C)CC4)c(OC)cc23)c(Cl)cc1Cl [Bosutinib] | 5.55 |  | 5.86 | < 4.48 | 4.94 | 5.88 | 6.3 | 6.26 | 5.11 | 5.97 | 5.89 | 5.41 | 5.67 | 5.88 | 6.05 | 6.03 | 5.85 | 5.99 |  | 5.56
CCN(CC)C(=S)SSC(=S)N(CC)CC [Disulfiram] | 5.85 | 6.84 | 6.65 | 7 |  | 7.22 | 4.9 | 4.93 | 4.85 | < 4.18 | 7.3 | 7.1 | 6.84 | 4.5 | 5.96 | < 4.18 | 4.53 | 4.97 | < 4.18 | 7.03
COc1cc([C@@H]2c3cc4c(cc3[C@@H](O[C@@H]3O[C@@H]5CO[C@@H](C)O[C@H]5[C@H](O)[C@H]3O)[C@H]3COC(=O)[C@H]23)OCO4)cc(OC)c1O [Etoposide] | 5.69 | 5.3 | 6.11 | 5.79 | 5.68 | 6.02 | 5.08 | 5.06 | 5.31 | 4.18 | 5.48 | 5.92 | 6.2 | 6.04 | 6.54 | 4.89 | 5.59 | 6.44 | 5.31 | 
CSCC[C@H](NC(=O)[C@H](Cc1ccccc1)NC[C@@H](NC[C@@H](N)CS)C(C)C)C(=O)O [FTase inhibitor I] | < 4.18 | < 4.18 | 5 | < 4.18 | < 4.18 | < 4.18 | < 4.18 | < 4.18 | < 4.48 | < 4.18 | < 4.48 | < 4.48 | < 4.48 | < 4.48 | < 4.48 | < 4.18 | 4.93 | < 4.18 |  | < 4.48
O=C1c2ccccc2-[n+]2ccc3c([nH]c4ccccc43)c21 [Fascaplysin] | 6.6 | 7.06 | 6.37 | 7.31 | 6.45 | 6.77 | 6.4 | 6.53 | 6.61 | 6.58 | 6.51 | 6.65 | 6.95 | 6.51 | 6.56 | 6.9 | 6.74 | 6.45 | 7.26 | 
O=c1[nH]c(=O)n([C@H]2C[C@H](O)[C@@H](CO)O2)cc1F [Floxuridine] | 3.32 | 5.79 | 4.49 | 2.8 | 5.55 | 3.87 | 3.67 | 3.65 | 4.36 | 2.73 | 3.49 | 3.66 | 4.97 | 4.16 | 3.79 | 3.67 | 3.45 | 4.86 |  | 4.11
Cc1cncc2cccc(S(=O)(=O)N3CCCN(C(=O)CN)C[C@@H]3C)c12 [Glycyl H1152] | 4.58 | 4.58 | 5.76 | < 4.18 | 4.81 | < 4.18 | < 4.18 | < 4.18 | < 4.48 | 4.77 | 5.18 | 4.33 | 5.14 | 5.31 | 5.96 | 6.04 | 5.1 | 4.9 |  | 4.59
CC(C(C)N1CC(=O)NC(=O)C1)N1CC(=O)NC(=O)C1 (configuration not stated) [ICRF-193] |  | 4.88 | 6.53 | < 4.48 | 6.07 | 5.16 | < 4.3 | < 4.48 | < 4.3 | < 4.3 | < 4.3 | 5.22 | 6.14 | 6.14 | 6.53 | < 4.3 | 5.6 | 6.71 | < 4.3 | < 4.48
Cc1ccc(C(=O)N(CCCN)[C@@H](c2nc3cc(Cl)ccc3c(=O)n2Cc2ccccc2)C(C)C)cc1 [Ispinesib] | 7.5 | 7.37 | 7.33 | 6.79 | 7.05 | 7.5 | 5.84 | 6.05 | 7.51 | 5.18 | 7.77 | 7.49 | 7.65 | 7.48 | 7.33 | 7.34 | 7.54 | 7.25 | 6.96 | 
CN(Cc1cnc2nc(N)nc(N)c2n1)c1ccc(C(=O)N[C@@H](CCC(=O)O)C(=O)O)cc1 [Methotrexate] | < 3.48 | < 3.48 | < 3.48 | 6.57 | 7.31 | 7.12 | 7.18 | 7.37 | 6.97 | 7.24 | < 3.48 | 6.28 | 5.36 | < 3.48 | < 3.48 | < 3.48 | < 3.48 | 5.22 | < 3.48 | 
CNC(=O)c1cc(Oc2ccc(NC(=O)Nc3ccc(Cl)c(C(F)(F)F)c3)cc2)ccn1 [Sorafenib] | 3.84 | 3.09 | 4.66 | 4.38 | 4.43 | 3.78 | 5.53 | 5.48 | 4.22 | 4 | 4.2 | 4.35 | 3.94 | 5 | 4.07 | 4.45 | 5.77 | 4.62 | 5.83 | 
CCN(CC)CCNC(=O)c1c(C)[nH]c(/C=C2\C(=O)Nc3ccc(F)cc32)c1C [Sunitinib malate] | 5.44 | 5.3 | 5.81 | 5.12 | 4.88 | 5.21 | 5.37 | 5.28 | 5.07 | 4.72 | 4.79 | 5.17 | 5.42 | 5.46 | 5.24 | 5.6 | 5.94 | 5.19 | 5.98 | 
CO[C@H]1C[C@@H]2CC[C@@H](C)[C@@](O)(O2)C(=O)C(=O)N2CCCC[C@H]2C(=O)O[C@H]([C@H](C)C[C@@H]2CC[C@@H](OC(=O)C(C)(CO)CO)[C@H](OC)C2)CC(=O)[C@H](C)/C=C(\C)[C@@H](O)[C@@H](OC)C(=O)[C@H](C)C[C@H](C)/C=C/C=C/C=C/1C [Temsirolimus] |  |  |  | 4.56 | < 3.88 | 4.63 | 6.3 | 5.29 |  | 7.27 | 6.18 | 7.27 |  | 4.87 | 4.91 | 6.49 | 8.82 | 5.03 | < 3.88 | 6.21
